Results published in patent US9107919B2, “Pharmaceutical compositions comprising imidazoquinolin(amines) and derivatives thereof suitable for local administration” (priority 2009, dated 2015).
≈ marks a conversion by molar mass, not a printed value.

How the values were obtained:
[1] = Toxicity of intravesical imiquimod in pigs (well-being, blood, bladder histology); assay type: in vivo, pig
Method: Animal procedures were performed according to the protocol approved by the Institutional Animal Care and Use Committee (IACUC, Radboud University Nijmegen Medicai Centre, The Netherlands) and in compliance with national and European regulations. Female pigs (Dutch Landrace) were used for this study. The urogenital tract of the pig closely resembles the human urogenital system, and the shape of the penis and the preputial diverticulum prevent transurethral catheterization of a male pig. The sows were housed in special swine stainless steel battery cages and fed with universal swine food. The pigs were divided into four groups of six animals. Experimental procedures were performed under general anesthesia. […]
Body temperature was measured rectally before and 1, 8 and 24 hours and one week after starting treatment. The well being of the animals was monitored by experienced staff by a selected protocollary list of possible signs and symptoms of toxicity before the experiment, just after the instillation and just before cystectomy.
24 hours after treatment three animals per group were sacrificed and cystectomised and 7 days after treatment the remaining animals underwent the same procedure. […] Material was embedded in paraffin, sectioned, and stained with H&E. The slides were evaluated for signs of inflammation and allergic reaction in submucosa and mucosa. […]

[2] = cited from earlier work
[3] = Imiquimod solubility in different solvent systems; assay type: physicochemical
Method: The dispersions have been centrifuged at 10,000 rpm for 10 minutes and the liquid phases collected and stored at room temperature until analysed. The imiquimod concentration in these solutions was spectrophotometrically (λ=319 nm) determined after appropriated dilution.

[4] = Preliminary solubility tests of imiquimod (visual inspection); assay type: physicochemical
Method: 48 mg of imiquimod was weighed and added of hydrochloric acid solutions at different concentrations: in particular 48.2 mg imiquimod were treated with 8 ml hydrochloric acid 0.1 N, 48.6 mg imiquimod with 9 ml hydrochloric acid 0.2 N and 48.4 mg imiquimod with 8 ml hydrochloric acid 2 N. After vortexing for 5 minutes, the samples were visually inspected.
A weighed amount of drug (48.2 mg) was dissolved under agitation in 2 ml glacial acetic acid. After complete solubilisation a weighed aliquot of imiquimod (150 mg) was added to this solution in order to visually evaluate the maximum concentration of dissolved drug.
The solubility of imiquimod at different pH values was determined. Two different procedures were used. The drug was dispersed in the buffer (without acetic acid as co-solvent). 72 mg imiquimod were dispersed with 10 ml citrate buffer, 155 mg imiquimod in 10 ml phosphate buffer and 192 mg in 10 ml acetate buffer. After vortexing for 5 minutes, each sample was visually inspected.
A visual inspection of the systems was carried out.

[5] = dissolved in glacial acetic acid, then diluted with buffers

For `CC(C)Cn1cnc2c(N)nc3ccccc3c21` [imiquimod, 1-isobutyl-1H-imidazo[4,5-c]quinolin-4-amine], the “tolerability of intravesical administration” value [1] is listed as “well tolerated, causes no bladder wall toxicity”, the pKa [2] is listed as “about 4” and the pH ([3]; 5% CD LA 01) is listed as 3.90. It also gave an imiquimod solubility ([3]; 5% CD LA 01 (5% HP-β-CD in 0.1 M lactic acid)) of 1.23 % w/w, an imiquimod solubility ([3]; 5% CD-16% PF127 LA 01) of 1.15 % w/w and a pH ([3]; 5% CD-16% PF127 LA 01) of 4.05. It also gave a pH ([3]; 5% PF127 LA 01) of 3.92, an imiquimod solubility ([3]; 5% PF127 LA 01 (5% Poloxamer 407 in 0.1 M lactic acid)) of 1.19 % w/w and a pH ([3]; 15% CD LA 01) of 4.03. For the same molecule, the imiquimod solubility ([3]; 15% CD LA 01 (15% HP-β-CD in 0.1 M lactic acid)) was 1.37 % w/w, the imiquimod solubility ([3]; 15% CD-16% PF127 LA 01) was 1.22 % w/w and the pH ([3]; 15% CD-16% PF127 LA 01) was 4.25. It also gave an imiquimod solubility ([3]; 16% PF127 LA 01) of 1.10 % w/w, a pH ([3]; 16% PF127 LA 01) of 3.99 and an imiquimod solubility ([3]; 20% PF127 LA 01) of 1.04 % w/w. The pH ([3]; 20% PF127 LA 01) was 4.16, the imiquimod solubility ([3]; DMSO) was 0.09 % w/w and the imiquimod solubility ([3]; Glutamic acid 0.072M) was 0.54 % w/w. The pH ([3]; Glutamic acid 0.072M) was 3.95, the imiquimod solubility ([3]; Glycolic acid 0.1M) was 0.68 % w/w and the pH ([3]; Glycolic acid 0.1M) was 3.82. It also gave a pH ([3]; LA 0.025M) of 3.93, an imiquimod solubility ([3]; LA 0.025M, 25° C., 24 h) of 0.33 % w/w and a pH ([3]; LA 0.05M) of 3.81. For the same molecule, the imiquimod solubility ([3]; LA 0.05M, 25° C., 24 h) was 0.58 % w/w, the pH ([3]; LA 0.1M) was 3.73 and the imiquimod solubility ([3]; LA 0.1M, 25° C., 24 h) was 1.18 % w/w. For the same molecule, the pH ([3]; LA 0.2M) was 3.52, the imiquimod solubility ([3]; LA 0.2M, 25° C., 24 h) was 2.20 % w/w and the imiquimod solubility ([3]; N-Methyl-pyrrolidone) was 0.16 % w/w. The imiquimod solubility ([3]; PEG 400) was 0.03 % w/w, the imiquimod solubility ([3]; Tartaric acid 0.1M) was 0.01 % w/w and the pH ([3]; Tartaric acid 0.1M) was 2.48. The “solubility in buffers (visual)” value ([4]; citrate, phosphate, acetate buffer, without acetic acid) was “slightly soluble”, the appearance after dilution [4, 5] was “clear, transparent solutions” and the “pH of the systems” value [4, 5] was “lower than 3.6”. For the same molecule, the solubility ([4]; glacial (100%) acetic acid, organic solvent or mixture, thermodynamic from solid, room temperature) was 100 mg/mL (≈ 416 mM), the “solubility (visual)” value ([4]; hydrochloric acid 0.1 N, 0.2 N and 2 N) was “slightly soluble” and the “solubility in glacial (100%) acetic acid” value ([4]; room temperature, visual) was 10 % (w/v).
